Results on two molecules are retold here after patent publication US20110123482A1, “Methods of Treating Neurological Autoimmune Disorders with Cyclophosphamide” (The Johns Hopkins University, priority 2007, published 2011).

Read-outs that look alike come from different tables or passages of the source.

Assay [1] deals with chronic relapsing experimental autoimmune encephalomyelitis (R-EAE) in SJL/J mice. Conditions: mouse, in vivo.
The next assay has as its system class II MHC molecules. Conditions: cited from earlier work.
The next assay relates to RRMS. The conditions noted are these: cited from earlier work.

For the molecule `O=P1(N(CCCl)CCCl)NCCCO1` (stereo not drawn) [CPA, N,N-bis(2-chloroethyl)-1,3,2-oxazaphosphinan-2-amine 2-oxide], in assay [1], the “rate of induced relapse with PLP reimmunization following CPA treatment” value is recorded as 70% and the “spontaneous relapse rate of RR-EAE following CPA treatment” value was 30%. The “cessation of EAE activity, share of animals” value in assay [1] (200 mg/kg) is 95%.

As to glatiramer acetate, the “binding affinity to class II MHC molecules” value in the assay on class II MHC molecules was “binds with high affinity”. Besides, in assay [1], the induced relapse rate amounted to 10%, the “rate of cessation of EAE activity by CPA” value was determined as 95% and the spontaneous relapse rate is on record as 2%. Further, the “time of treatment to reduce the number of lesions and relapses” value in the assay on RRMS (20 mg GA, compared to placebo controls) is reported as “approximately 3 months”. The “time of treatment to reduce the number of lesions and relapses” value in the assay on RRMS (40 mg daily, compared to controls) is “less than 3 months”.
